From publication PMC10353446, “Pharmacokinetics of SPR206 in Plasma, Pulmonary Epithelial Lining Fluid, and Alveolar Macrophages following Intravenous Administration to Healthy Adult Subjects” (Antimicrobial Agents and Chemotherapy, 2023)
Where a SMILES comes first, the peptide text is derived from it. Bridges are numbered along the chain shown (N, C = ends). [ ]: non-standard residue; d: D form. The star is where a group is joined. X1 = NC[C@@H](CC(=O)*)c1cccc(Cl)c1; Dab = NCC[C@H](N)C(=O)O; Dap = NC[C@H](N)C(=O)O

What was measured:
[1] = in vivo; cited from earlier work
[2] = clinical; conditions: human, in vivo, iv, 100 mg
Description: (§1) This was a Phase 1, single-center, multiple-dose, open-label PK study in healthy adult male and female subjects. Subjects received three 100 mg doses of SPR206 administered q8h as a 1-h IV infusion. Three consecutive doses were sufficient to achieve steady-state based on a previous Phase 1 study in healthy subjects ([36]). A screening evaluation to determine eligibility for enrollment into the study was performed within 28 days of initial dosing. Subjects who met inclusion and exclusion criteria returned to the study unit 1 day before dosing (Day -1). Subjects who met inclusion and exclusion criteria were confined to the study site from Day -1 (1 day prior to start of dosing) and remained in the study site through completion of all scheduled procedures including collection of the last PK sample and bronchoscopy procedures along with safety evaluations (Day 2). Each subject underwent 1 bronchoscopy with BAL at 2, 3, 4, 6, or 8 h after the start of the third IV infusion. Subjects were required to return for a follow-up visit on Day 7 (+2 days) after discharge from the study site. The maximum duration of participation for each subject was up to 39 days (up to 28 days for Screening, 2 days of confinement, and up to 9 days for follow-up).
Blood samples for determining SPR206 plasma concentrations were collected within 60 min pre-dose (0 h) prior to second and third doses of SPR206 only and at 2, 3, 4, 6, and 8 h after the start of the third dose of SPR206.
Concentrations of SPR206 in plasma were determined by a validated liquid chromatography with tandem mass spectrometry (LC-MS/MS) assay performed at QPS, LLC. For plasma, the assay range was 50 to 50,000 ng/mL. In plasma, intraday precision (% coefficient of variation) ranged from 1.3% to 7.7%, and accuracy (% relative error) ranged from -1.2% to 9.5%. Interday precision ranged from 2.9% to 5.3% and accuracy ranged from 1.6% to 6.0%.
PK analysis of SPR206 plasma concentrations was determined with noncompartmental PK analysis using Phoenix WinNonlin software (version 8.3, Certara Inc.). PK parameters were Tmax, Cmax, Cmin, and AUC0-8.
(§2) Actual BAL samples were collected outside the protocol-specified sampling time windows. Thus, an updated method was utilized where the PK parameters for ELF or AM were calculated from composite concentration profiles of ELF or AM, respectively, based on the 27 subjects in the BAL PK population. Some blood samples were collected outside of the planned sampling windows, and therefore, individual plasma AUC0-8 was calculated first and the mean population plasma AUC0-8 was derived from all individual AUC0-8 values.
(§3) Concentrations of SPR206 were summarized separately for plasma, ELF, and AM by nominal time point using descriptive statistics. The mean concentrations of SPR206 in BAL fluid obtained at the different BAL fluid sampling times (e.g., 2, 3, 4, 6, and 8 h) were used to estimate the AUC0-8 for SPR206 in plasma, ELF, and AM. The concentration at the final sampling time (8 h) also served as the time zero value for determining the AUC0-8 value of each matrix using Phoenix WinNonlin software (version 8.3, Certara Inc.). The ratios of the AUC0-8 of ELF or AM to the AUC0-8 of plasma (total and unbound) were calculated. Plasma protein binding analyses were not conducted as part of this study. The value used for the unbound fraction of SPR206 in plasma was 0.914 (Spero Therapeutics, Inc., data on file). The measured concentrations in ELF and AM represented unbound concentrations, since only unbound plasma fractions are considered to penetrate the lung compartments. Individual plasma concentration-time profile versus time and arithmetic mean concentration (±SD) versus time plots were presented for the concentration-time data.

[3] = Alveolar macrophage (AM) pharmacokinetics of SPR206 from BAL cell pellet; assay type: in vivo, human
Description: as §1
Subjects were assigned to 1 of 5 bronchoscopy sampling times at 2, 3, 4, 6, or 8 (± 10 min) after the third IV infusion of SPR206. Each subject underwent 1 standardized bronchoscopy and BAL on Day 2 at the assigned time. A blood sample to determine plasma concentrations of SPR206 and urea was obtained during the bronchoscopy procedure at each BAL sampling time (approximating the time of collection of a second aspirate of BAL). Detail descriptions of the outpatient bronchoscopy, BAL procedures, and the handling, processing, and storage of samples have been previously described ([58][–][60]).
The concentrations of SPR206 in BAL and in cell pellets were determined by Keystone Bioanalytical, Inc. using a validated LC-MS/MS method. ELF concentrations were calculated by the urea dilution method ([61], [62]). AM concentrations were determined from cell pellet drug concentrations, cell count in BAL fluid, and macrophage cell volume ([62]). The calibration curves for SPR206 were linear over a range from 2 to 1,000 ng/mL. The inter-assay precision (%CV) and accuracy (%RE) for SPR206 were 2.81% to 15.84% and -4.02% to 1.51%, respectively. The intra-assay precision (%CV) and accuracy (%RE) for SPR206 were 1.43% to 18.59% and -17.44% to 6.28%, respectively.
as §2
as §3, with “Individual plasma concentration-time profile versus time and arithmetic mean concentration (±SD) versus time plots were presented for the concentration-time data.” left out

[4] = both sexes, human, in vivo, iv, 100 mg

Compound: CC(C)C[C@@H]1NC(=O)[C@@H](Cc2ccccc2)NC(=O)[C@H](CCN)NC(=O)[C@@H](NC(=O)[C@H](CN)NC(=O)[C@@H](NC(=O)C[C@H](CN)c2cccc(Cl)c2)[C@@H](C)O)CCNC(=O)[C@H]([C@@H](C)O)NC(=O)[C@H](CCN)NC(=O)[C@H](CCN)NC1=O [SPR206] (X1-T[Dap][Dab][Dab][dF]L[Dab][Dab]T; lactam 3-C (inferred))
- Exposure in the kidney [1]: lower exposure in the kidney than polymyxin B
- Vd ([2]; both sexes): 19.8 L
- half-life ([2]; both sexes): 3.6 h
- AUC(0-t) ([2]; both sexes, AUC0-8, geometric mean (CV%)): 19800 ng·h/mL
- Cmax ([2]; both sexes, arithmetic mean (SD)): 4400 ng/mL
- Cmax ([2]; both sexes, geometric mean (CV%)): 4300 ng/mL
- Tmax ([2]; both sexes, Median time to peak plasma concentrations (Tmax)): 2 h
- Tmax ([2]; both sexes, Tmax range): 1.8 to 2.9 h
- Tmax ([2]; both sexes, Tmax, arithmetic mean (SD)): 2.1 h
- Tmax ([2]; both sexes, Tmax, geometric mean (CV%)): 2.1 h
- AUC0-8, geometric mean (CV%) ([2]; both): 19817.9 (17.9) h*ng/mL
- Cmax, geometric mean (CV%) ([2]; both): 4333.4 (17.2) ng/mL
- t1/2, geometric mean (CV%) ([2]; both): 3.6 (13.5) hours
- Vz, geometric mean (CV%) [2]: 19502.1 (18.1) mL
- Ratio AM to total plasma concentration, arithmetic mean ± SD ([3]; BAL sampling time 2 hours post-dose): 0.206 ± 0.114
- Ratio AM to unbound plasma concentration, arithmetic mean ± SD ([3]; BAL sampling time 2 hours post-dose, unbound fraction 0.914): 0.226 ± 0.124
- Ratio AM to total plasma concentration, arithmetic mean ± SD ([3]; BAL sampling time 3 hours post-dose): 0.184 ± 0.065
- Ratio AM to unbound plasma concentration, arithmetic mean ± SD ([3]; BAL sampling time 3 hours post-dose, unbound fraction 0.914): 0.201 ± 0.071
- Ratio AM to total plasma concentration, arithmetic mean ± SD ([3]; BAL sampling time 4 hours post-dose): 0.223 ± 0.089
- Ratio AM to unbound plasma concentration, arithmetic mean ± SD ([3]; BAL sampling time 4 hours post-dose, unbound fraction 0.914): 0.244 ± 0.097
- Ratio AM to total plasma concentration, arithmetic mean ± SD ([3]; BAL sampling time 6 hours post-dose): 0.519 ± 0.223
- Ratio AM to unbound plasma concentration, arithmetic mean ± SD ([3]; BAL sampling time 6 hours post-dose, unbound fraction 0.914): 0.568 ± 0.244
- Ratio AM to total plasma concentration, arithmetic mean ± SD ([3]; BAL sampling time 8 hours post-dose): 0.503 ± 0.192
- Ratio AM to unbound plasma concentration, arithmetic mean ± SD ([3]; BAL sampling time 8 hours post-dose, unbound fraction 0.914): 0.550 ± 0.210
- Ratio of AUC0-8 of AM to AUC0-8 of total plasma ([3]; after third 100 mg IV dose, plasma n = 34, AM n = 27): 0.300
- Ratio of AUC0-8 of AM to AUC0-8 of unbound plasma ([3]; after third 100 mg IV dose, plasma n = 34, AM n = 27, unbound fraction 0.914): 0.328
- AUC(0-t) [3, 4]: 6030 ng·h/mL
- Cmax [3, 4]: 861 ng/mL
- Tmax [3, 4]: 6.4 h
